Data: US6166076A, “Taste enhancing food additives” (Board of Supervisors of Louisiana State University and …, priority 1997, dated 2000)

Experiments:
[1] = test system: inactivating A-type K^+ channels (IA); assay: whole-cell patch clamp, inactivating A-type K^+ current (IA) in rat fungiform taste receptor cells; type: cell-based, rat (Sprague-Dawley); details: 4-AP 10 mM; in presence of arachidonic acid; n=10 cells
Protocol: (§1) Voltage-activated currents were recorded from individual taste receptor cells maintained in the taste bud using the whole-cell patch clamp configuration, as generally described in Hamill et al., "Improved Patch-clamp Techniques for High-resolution Current Recording from Cells and Cell-free Membrane Patches," Pflugers Arch., Vol. 391, pp. 85-100 (1981). […]
(§2) Typical seal resistances on TRC membranes ranged from […] to greater than 50 G.OMEGA.. […] Commands were delivered and data recorded using pCLAMP software (version 6.0.3) interfaced to an AxoPatch 200A amplifier with a Digidata 1200A A-D board (Axon Instruments, Foster City, Calif.). […]
(§3) For analysis, currents during FFA application were averaged over a consistent time range corresponding to the steady-state condition, and were compared to currents in control (Tyrode's) solution. […] For analysis of delayed rectifying K^+ channels, currents were measured at command potentials of +40 mV during steady-state; inwardly rectifying currents, when investigated, were measured at -130 mV. Significant effects of FFAs on K^+ currents were determined by paired Student's t tests (α=0.05) compared to control currents immediately preceding the test stimulus. […]

[2] = test system: delayed rectifier K^+ channel; assay: whole-cell patch clamp, delayed rectifier K^+ channel (steady-state outward K^+ current at +40 mV) in rat fungiform taste receptor cells; type: cell-based, rat (Sprague-Dawley)
Source text: (§4) The effects of free fatty acids ("FFAs") on taste buds isolated from rat fungiform papillae were examined to determine if a chemosensory (i.e. non-textural) cue for fats is located in the mouth. The methods used to isolate TRCs were generally as described in Behe et al., "Membrane Currents in Taste Cells of the Rat Fungiform Papilla: Evidence for Two Types of Ca Currents and Inhibition of K Currents by Saccharin," Journal of General Physiology, Vol. 96, pp. 1061-1084 (1990); Doolin et al., "Distribution and Characterization of Functional Amiloride-sensitive Sodium Channels in Rat Tongue," Journal of General Physiology, Vol. 107. pp. 545-554 (1996); and Gilbertson et al., "Proton Currents Through Amiloride-sensitive Na^+ Channels in Isolated Hamster Taste Cells: Enhancement by Vasopressin and cAMP," Neuron, Vol. 10, pp. 931-942 (1993).
(§5) Individual fungiform taste buds were isolated from the tongues of 2- to 5-month-old male Sprague-Dawley rats (Harlan Sprague Dawley, Indianapolis,Ind.). Animals were housed individually in polycarbonate cages with food (Purina #5001, Purina Mills, St. Louis, Mo.) provided ad lib. The room containing the rats was maintained at 21-23° C. on a 0700-1900 h light-dark cycle. All animal care and experimental procedures were in accordance with National Institutes of Health guidelines, and were approved by the Institutional Animal Care and Use Committee of the Pennington Biomedical Research Center.
(§6) Tongues were removed from euthanized rats, and were immediately placed in ice-cold Tyrode's solution. To remove the lingual epithelium containing the taste buds from the underlying muscle layer, approximately 1.0 ml of Tyrode's solution containing 0.3 mg/ml collagenase A (Boehringer Mannheim Corp., Indianapolis, Ind.), 2.5 mg/ml dispase (grade II; Boehringer Mannheim) and 1.0 mg/ml trypsin inhibitor (type I-S; Sigma Chemical Co., St. Louis, Mo.) was injected below the epithelium. The injected tongue was placed in Ca--Mg free Tyrode's solution and bubbled with O2 for 33-35 min. The lingual epithelium was removed and pinned serosal side up, allowing access to the taste buds. Fungiform taste buds were removed individually by gentle suction with a large, firepolished pipette (~200 μm diameter), and were plated onto Cell-Tak™-coated microscope slides (Collaborative Biomedical Prod., Bedford, Mass.) fitted with an O-ring which served as a recording chamber. Once plated, cells were perfused continually with Tyrode's or various test solutions. Taste buds isolated in this manner were used for up to 6 hours without any noticeable morphological or physiological decrement.
(§7) All chemicals were obtained from Sigma Chemical Corporation (St. Louis, Mo.) unless otherwise indicated. Normal extracellular solution (Tyrode's) contained (in mM): NaCl, 140; KCl, 5; CaCl2, 1; MgCl2, 1; HEPES (N-[2-hydroxyethyl] piperazine-N'-[2-ethanesulfonic acid), 10; glucose, 10; and sodium pyruvate, 10. The pH was adjusted to 7.40 with NaOH. In Ca^2+ --Mg^2+ free Tyrode's solution, 2 mM BAPTA (1,2-bis(2-aminophenoxy) ethane-N,N,N',N'-tetraacetic acid) (Molecular Probes, Eugene, Oreg.) replaced CaCl2 and MgCl2. Other components were identical to Tyrode's solution. Intracellular (pipette) solution contained (in mM): KCl, 140; CaCl2, 1 [free Ca^2+ was ~10^-8 M]; MgCl2, 2; HEPES, 10; EGTA (ethylene glycol-bis(β-aminoethylether)-N,N,N',N'-tetraacetic acid), 11; and ATP, 3. The pH was adjusted to 7.20 with KOH.
(§8) Free fatty acids (FFAs) were stored below -20° C. until the day of use, when they were dissolved in warm ethanol and diluted to final working concentrations in Tyrode's solution. Final ethanol concentrations in Tyrode's were below 0.1%; the ethanol had no effect on ionic currents in any TRCs. All FFAs were applied by bath perfusion. In some experiments, FFA-containing solutions were bubbled continuously with nitrogen to retard oxygenation. […]

[3] = test system: inwardly rectifying K^+ channels (Kir); assay: whole-cell patch clamp, inwardly rectifying K^+ channels (Kir) at -130 mV in rat fungiform taste receptor cells; type: cell-based, rat (Sprague-Dawley)
Source text: as §4, §5, §6, §7, §8

[4] = test system: delayed rectifying K^+ channels; assay: patch clamp, delayed rectifying K^+ channels of TRCs isolated from Osborne-Mendel rats; type: cell-based
Source text: (§9) To determine if there is a link between the sensitivity of TRCs to PUFAs and dietary fat preferences, the PUFA-sensitivities of TRCs using patch clamp techniques were compared on TRCs isolated from Osborne-Mendel ("O-M") rats and S5B/P1 rats, strains with different dietary preferences. O-M rats prefer fat over carbohydrate, while S5B/P1 rats prefer carbohydrate over fat. […] Rats whose TRCs were more sensitive to the fatty acids have a preference for a lower-fat diet; while rats whose TRCs are less sensitive to fatty acids seek diets that are higher in fat.

[5] = test system: delayed rectifying K^+ channels; assay: patch clamp, delayed rectifying K^+ channels of TRCs isolated from S5B/P1 rats; type: cell-based
Source text: as §9

cardiac atrial cells = details: applied extracellularly; cited from earlier work
[6] = test system: ATP-inhibitable K channel (KATP); assay: whole-cell patch clamp, ATP-inhibitable K channel (KATP) residual current in rat fungiform taste receptor cells; type: cell-based, rat (Sprague-Dawley); details: glyburide 20 μM; in presence of arachidonic acid and 4-AP; n=6 cells
Protocol: as §1, §2, §3

Nc1ccncc1 [4-aminopyridine]
inhibition of the rapidly inactivating current (IA) [1]: reversibly and completely inhibited

CCCCC/C=C\C/C=C\C/C=C\C/C=C\CCCC(=O)O [arachidonic acid]
effect on outward K^+ currents, specificity test ([2]; 10 μM, >10 min (maximal effect), significance by paired t test): significantly reduced outward K^+ currents | inhibition of the voltage-activated steady-state outward K^+ current ([2]; 10 μM, +40 mV, n=44 cells): 83% | mean time constant (ton) for the onset of effects ([2]; 10 μM, n=18 cells): 4.37 ± 1.8 min | inhibition of delayed rectifier K^+ channel in presence of NDGA and indomethacin ([2]; NDGA 10 μM and indomethacin 200 μM, n=5 cells): inhibited the delayed rectifier K^+ channel | effect on outward K^+ currents / delayed rectifier K^+ channel (in words) ([2]; arachidonic acid 0.25-100 μM, extracellular, all cells examined): reversible, slowly developing inhibition of the delayed rectifier K^+ channel | time to reach maximum effect on outward K^+ currents ([2]; extracellular arachidonic acid): 10 to 15 min | recovery time constant (toff) from inhibition ([2]; n=18 cells): 10.92 ± 5.9 min | time constant for inactivation of the outward K^+ current ([2]; presence of 10 μM arachidonic acid, control 457±103 msec, n=20): 42 ± 26 ms | Ki ([2]; read-out: inhibition constant (Ki) for the delayed rectifier K^+ channel): 1020 nM | stimulation of taste receptor cells ([2]; summary statement): stimulate taste receptor cells | change of Kir over control levels, in words ([3]; 10 μM arachidonic acid, approximately 30% of cells): approximately doubling Kir over control levels | Kir compared to control ([3]; 10 μM, -130 mV, n=16 cells, % of control): 191%±19.7 | share of cells in which Kir was activated ([3]; 10 μM, subset of cells, of the total): approximately 30% | activation of Kir in cells that did not show this current in control ([3]; cells without Kir in control (saline) conditions): not able to activate Kir | effect on inward currents in cells without inward rectification ([3]; potentials more negative than -100 mV, n=37 cells): not significantly affected | inhibition of the delayed rectifying K^+ channels, O-M rats [4]: inhibited the delayed rectifying K^+ channels in a concentration-dependent manner | sensitivity of S5B/P1 TRCs to inhibition compared with O-M TRCs ([5]; 10 μM, versus TRCs from O-M rats): significantly more sensitive to inhibition | inhibition of the delayed rectifying K^+ channels, S5B/P1 rats ([5]; TRCs from S5B/P1 rats): inhibited the delayed rectifying K^+ channels in a concentration-dependent manner | response of cardiac cells (cardiac atrial cells): responded

COc1ccc(Cl)cc1C(=O)NCCc1ccc(S(=O)(=O)NC(=O)NC2CCCCC2)cc1 [glyburide]
block of the residual (KATP) current [6]: blocked the residual current
